Test results from the supplement of paper PMC10307832.

Assays:
Assay in all cases: relative viability (nuclei count vs DMSO), 5 days (fraction); higher = more cells survive
Pemetrexed + AZD7762 = compound: Nc1nc2[nH]cc(CCc3ccc(C(=O)N[C@@H](CCC(=O)O)C(=O)O)cc3)c2c(=O)[nH]1 [Pemetrexed] + NC(=O)Nc1cc(-c2cccc(F)c2)sc1C(=O)N[C@H]1CCCNC1 [AZD7762] (partner 0.2 µM)
Procedure, shortened: (§1)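 Cells from lung cancer lines were seeded into 1536-well plates and, one day later, dosed by pin tool. Treatments were either a single drug or a fixed dose of an anchor drug with five library-drug doses (not always all listed) in √10 steps. After 5 days, nuclei were stained in a one-step fixation (final 0.05% Triton X-100, 1% formaldehyde, 1 ug/ml Hoechst) and counted on 4× images, and relative viability is the treated-to-vehicle nuclei ratio, as the median of duplicate plates.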

Pemetrexed + Pictilisib = compound: Nc1nc2[nH]cc(CCc3ccc(C(=O)N[C@@H](CCC(=O)O)C(=O)O)cc3)c2c(=O)[nH]1 [Pemetrexed] + CS(=O)(=O)N1CCN(Cc2cc3nc(-c4cccc5[nH]ncc45)nc(N4CCOCC4)c3s2)CC1 [Pictilisib] (partner 1 µM)
Procedure, shortened: as §1

Idelalisib + Pictilisib = compound: CC[C@H](Nc1ncnc2[nH]cnc12)c1nc2cccc(F)c2c(=O)n1-c1ccccc1 [Idelalisib] + CS(=O)(=O)N1CCN(Cc2cc3nc(-c4cccc5[nH]ncc45)nc(N4CCOCC4)c3s2)CC1 [Pictilisib] (partner 1 µM)
Procedure, shortened: as §1

Idelalisib + Crizotinib = compound: CC[C@H](Nc1ncnc2[nH]cnc12)c1nc2cccc(F)c2c(=O)n1-c1ccccc1 [Idelalisib] + C[C@@H](Oc1cc(-c2cnn(C3CCNCC3)c2)cnc1N)c1c(Cl)ccc(F)c1Cl [Crizotinib] (partner 1 µM)
Procedure, shortened: as §1

| Cell Line | relative viability (Pemetrexed + AZD7762; first compound 0.002 µM) | relative viability (Pemetrexed + AZD7762; first compound 0.006325 µM) | relative viability (Pemetrexed + AZD7762; first compound 0.02 µM) | relative viability (Pemetrexed + AZD7762; first compound 0.06325 µM) | relative viability (Pemetrexed + AZD7762; first compound 0.2 µM) | relative viability (Pemetrexed + Pictilisib; first compound 0.002 µM) | relative viability (Pemetrexed + Pictilisib; first compound 0.006325 µM) | relative viability (Pemetrexed + Pictilisib; first compound 0.02 µM) | relative viability (Pemetrexed + Pictilisib; first compound 0.06325 µM) | relative viability (Pemetrexed + Pictilisib; first compound 0.2 µM) | relative viability (Idelalisib + Pictilisib; first compound 0.04 µM) | relative viability (Idelalisib + Pictilisib; first compound 0.1265 µM) | relative viability (Idelalisib + Pictilisib; first compound 0.4 µM) | relative viability (Idelalisib + Pictilisib; first compound 1.265 µM) | relative viability (Idelalisib + Pictilisib; first compound 4 µM) | relative viability (Idelalisib + Crizotinib; first compound 0.04 µM) | relative viability (Idelalisib + Crizotinib; first compound 0.1265 µM) | relative viability (Idelalisib + Crizotinib; first compound 0.4 µM) | relative viability (Idelalisib + Crizotinib; first compound 1.265 µM) | relative viability (Idelalisib + Crizotinib; first compound 4 µM) |
| --- | --- | --- | --- | --- | --- | --- | --- | --- | --- | --- | --- | --- | --- | --- | --- | --- | --- | --- | --- | --- |
| NCI-H1993 | 0.546 | 0.825 | 0.779 | 0.563 | 0.481 | 0.899 | 0.97 | 0.819 | 0.743 | 0.882 | 0.804 | 0.8 | 0.807 | 0.896 | 0.803 | 0.873 | 0.893 | 0.879 | 0.834 | 0.73 |
| LXF-289 | 1.06 | 1.02 | 1.14 | 1.09 | 1.02 | 0.756 | 0.759 | 0.844 | 0.827 | 0.701 | 0.894 | 0.78 | 0.722 | 0.873 | 0.745 | 0.839 | 0.818 | 0.778 | 0.909 | 0.825 |
| NCI-H1792 | 0.608 | 0.633 | 0.697 | 0.676 | 0.633 | 0.252 | 0.298 | 0.325 | 0.255 | 0.252 | 0.279 | 0.251 | 0.268 | 0.275 | 0.249 | 0.612 | 0.987 | 0.804 | 0.979 | 1.01 |
| LU99A | 0.356 | 0.376 | 0.371 | 0.293 | 0.178 | 0.329 | 0.295 | 0.332 | 0.334 | 0.256 | 0.324 | 0.339 | 0.263 | 0.385 | 0.279 | 0.625 | 0.638 | 0.578 | 0.614 | 0.643 |
| NCI-H1755 | 0.42 | 0.453 | 0.483 | 0.393 | 0.295 | 0.327 | 0.416 | 0.532 | 0.45 | 0.318 | 0.444 | 0.466 | 0.358 | 0.41 | 0.372 | 0.812 | 0.878 | 0.832 | 0.745 | 0.671 |
| LOU-NH91 | 0.678 | 0.738 | 0.715 | 0.44 | 0.394 | 0.511 | 0.488 | 0.551 | 0.453 | 0.392 | 0.532 | 0.478 | 0.509 | 0.504 | 0.575 | 0.791 | 0.711 | 0.677 | 0.68 | 0.727 |
| EMC-BAC-2 | 1.1 | 0.944 | 1.14 | 0.948 | 0.69 | 0.534 | 0.465 | 0.564 | 0.579 | 0.421 | 0.563 | 0.569 | 0.475 | 0.59 | 0.492 | 0.788 | 0.796 | 0.676 | 0.742 | 0.732 |
| ChaGo-K-1 | 0.902 | 0.803 | 0.834 | 0.27 | 0.238 | 0.609 | 0.793 | 0.597 | 0.224 | 0.28 | 0.788 | 0.608 | 0.797 | 0.796 | 0.791 | 1.38 | 1.13 | 1.1 | 1.15 | 1.17 |
| EKVX | 0.589 | 0.645 | 0.636 | 0.549 | 0.654 | 0.408 | 0.441 | 0.418 | 0.432 | 0.269 | 0.498 | 0.456 | 0.384 | 0.356 | 0.447 | 0.83 | 0.897 | 0.633 | 0.753 | 0.752 |
| NCI-H2085 | 0.921 | 0.936 | 1.04 | 0.959 | 0.916 | 0.503 | 0.425 | 0.506 | 0.548 | 0.507 | 0.531 | 0.452 | 0.38 | 0.451 | 0.413 | 0.86 | 0.897 | 0.761 | 0.736 | 0.81 |
| NCI-H3122 | 1.04 | 0.863 | 0.966 | 0.4 | 0.276 | 0.6 | 0.584 | 0.628 | 0.526 | 0.338 | 0.595 | 0.594 | 0.551 | 0.669 | 0.557 | 0.296 | 0.28 | 0.3 | 0.283 | 0.289 |
| HCC-827 | 0.192 | 0.276 | 0.26 | 0.183 | 0.164 | 0.74 | 0.973 | 0.929 | 0.95 | 0.664 | 0.995 | 1.06 | 1.05 | 1.09 | 0.843 | 0.978 | 0.943 | 0.864 | 0.927 | 0.838 |
| HARA | 0.272 | 0.302 | 0.582 | 0.259 | 0.128 | 0.465 | 0.374 | 0.436 | 0.235 | 0.204 | 0.376 | 0.409 | 0.287 | 0.403 | 0.266 | 1.2 | 0.988 | 0.894 | 0.988 | 0.991 |
| NCI-H441 | 1.12 | 1.1 | 1.11 | 1.03 | 0.291 | 0.46 | 0.463 | 0.595 | 0.322 | 0.268 | 0.522 | 0.451 |  | 0.375 | 0.393 | 1.15 | 0.702 |  | 0.68 | 0.654 |
| HCC-15 | 1.11 | 1.13 | 1.48 | 0.903 | 0.448 | 0.629 | 0.777 | 0.766 | 0.544 | 0.238 | 0.762 | 0.748 | 0.662 | 0.866 | 0.728 | 0.809 | 0.842 | 0.72 | 0.885 | 0.762 |
| ABC-1 | 0.907 | 0.847 | 0.856 | 0.732 | 0.726 | 0.947 | 0.662 | 0.954 | 0.826 | 0.706 | 0.726 | 0.771 | 0.566 | 0.813 | 0.723 | 0.95 | 1.23 | 1.14 | 1.04 | 0.902 |
